Experimental data published in US10479795B2 (Incyte Corporation, priority 2016, dated 2019).
Where a name gives a salt, the structure may show the parent alone. Read-outs that look alike come from different tables or passages of the source.

Experiments:
[1] = system: Phosphorylated Ribosomal Protein S6 (RPS6); assay: THP-1 RPS6 ELISA Assay; type: cell-based, Human; settings: THP-1 cells, read-out: PI3Kγ_THP1_RPS6_ELISA IC50
Procedure: To measure the Phosphorylated Ribosomal Protein S6 (RPS6) in cell lysates, THP-1 cells (Human Acute Monocytic Leukemia) are purchased from ATCC (Manassas, Va.) and maintained in RPMI with 10% FBS (Gibco/Life Technologies, Carlsbad, Calif.). For the assay, THP-1 cells are serum starved overnight in RPMI, then plated in RPMI (2×10^5 cells/well in 90 μL) into 96-well flat-bottom tissue culture treated plates (Corning, Corning, N.Y.), in the presence or absence of a concentration range of test compounds. Covered plates are incubated for 2 hours at 37° C., 5% CO2 then treated with or without 10 nM MCP-1 (MYBioSource, San Diego, Calif.) for 15 minutes at 37° C., 5% CO2. Plates are centrifuged at 1600 RPM and supernatants are removed. Cells are lysed in Lysis Buffer (Cell Signaling, Danvers, Mass.) with Protease Inhibitor (Calbiochem/EMD, Germany), PMSF (Sigma, St Louis Mo.), HALTS (Thermo Fisher, Rockford, Ill.) for 30 min on wet ice. Cell lysates are frozen at −80° C. before testing. The lysates are tested in the Human/Mouse/Rat Phospho-RPS6 ELISA (R&D Systems, Inc. Minn, Minn.). The plate is measured using a microplate reader (SpectraMax M5 —Molecular Devices, LLC Sunnyvale, Calif.) set to 450 nm with a wavelength correction of 540. IC50 determination is performed by fitting the curve of inhibitor percent inhibition versus the log of the inhibitor concentration using the GraphPad Prism 5.0 software.

[2] = biological target: PI3Kδ (p110δ/p85α) Recombinant Human Protein (Homo sapiens (Human), UniProt O00329); assay: PI3Kδ Scintillation Proximity Assay; type: biochemical
Chain of PI3Kδ (p110δ/p85α) Recombinant Human Protein (O00329 whole entry): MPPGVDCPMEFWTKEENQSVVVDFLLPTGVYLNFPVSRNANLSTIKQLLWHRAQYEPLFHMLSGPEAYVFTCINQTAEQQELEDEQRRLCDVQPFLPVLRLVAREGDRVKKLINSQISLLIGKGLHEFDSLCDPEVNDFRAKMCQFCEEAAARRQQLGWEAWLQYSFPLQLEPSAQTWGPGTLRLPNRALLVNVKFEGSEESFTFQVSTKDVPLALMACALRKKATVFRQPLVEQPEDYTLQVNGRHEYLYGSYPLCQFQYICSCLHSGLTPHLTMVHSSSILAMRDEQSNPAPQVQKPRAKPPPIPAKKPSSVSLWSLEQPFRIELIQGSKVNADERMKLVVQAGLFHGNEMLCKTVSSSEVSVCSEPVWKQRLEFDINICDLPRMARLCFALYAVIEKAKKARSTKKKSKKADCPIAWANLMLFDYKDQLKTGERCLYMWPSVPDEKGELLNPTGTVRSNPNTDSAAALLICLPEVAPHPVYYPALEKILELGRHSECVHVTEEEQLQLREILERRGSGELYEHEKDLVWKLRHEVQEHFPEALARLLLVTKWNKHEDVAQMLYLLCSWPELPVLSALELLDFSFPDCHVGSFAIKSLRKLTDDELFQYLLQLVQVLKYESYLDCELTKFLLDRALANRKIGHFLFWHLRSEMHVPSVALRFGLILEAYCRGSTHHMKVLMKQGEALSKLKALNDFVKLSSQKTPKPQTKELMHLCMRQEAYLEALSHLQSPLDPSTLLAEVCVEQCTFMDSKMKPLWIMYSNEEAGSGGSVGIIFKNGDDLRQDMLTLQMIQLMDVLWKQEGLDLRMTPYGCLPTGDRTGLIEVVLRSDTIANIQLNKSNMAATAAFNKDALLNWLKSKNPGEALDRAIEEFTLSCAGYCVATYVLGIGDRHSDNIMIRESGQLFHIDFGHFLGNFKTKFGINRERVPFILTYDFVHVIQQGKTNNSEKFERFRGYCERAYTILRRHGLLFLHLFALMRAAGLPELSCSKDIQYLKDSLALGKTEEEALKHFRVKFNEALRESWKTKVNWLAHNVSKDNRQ
Chain of PI3Kδ (p110δ/p85α) Recombinant Human Protein (P27986 whole entry partner): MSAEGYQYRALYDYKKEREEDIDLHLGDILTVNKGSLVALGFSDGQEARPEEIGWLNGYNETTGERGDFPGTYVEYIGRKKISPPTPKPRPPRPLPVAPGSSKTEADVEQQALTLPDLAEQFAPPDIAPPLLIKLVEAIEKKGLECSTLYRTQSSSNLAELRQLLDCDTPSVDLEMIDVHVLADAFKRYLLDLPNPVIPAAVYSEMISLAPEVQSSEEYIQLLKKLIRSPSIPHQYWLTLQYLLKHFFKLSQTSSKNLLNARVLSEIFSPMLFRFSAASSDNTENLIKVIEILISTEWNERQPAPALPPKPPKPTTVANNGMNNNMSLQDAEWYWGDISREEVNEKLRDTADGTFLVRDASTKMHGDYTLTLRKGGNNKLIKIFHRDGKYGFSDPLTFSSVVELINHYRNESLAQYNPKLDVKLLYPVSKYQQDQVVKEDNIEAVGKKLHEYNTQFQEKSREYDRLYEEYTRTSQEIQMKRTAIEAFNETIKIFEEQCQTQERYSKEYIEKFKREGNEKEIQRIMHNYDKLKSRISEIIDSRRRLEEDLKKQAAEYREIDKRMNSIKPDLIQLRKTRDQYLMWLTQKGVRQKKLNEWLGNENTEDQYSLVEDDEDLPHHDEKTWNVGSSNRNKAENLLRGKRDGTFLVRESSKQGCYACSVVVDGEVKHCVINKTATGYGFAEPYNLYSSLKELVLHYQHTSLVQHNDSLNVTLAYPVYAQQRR
Summary of the method: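 Recombinant human p110δ/p85α (3.4 nM) phosphorylates 20 μM di-octanoyl PIP2 using 2 μM ATP spiked with [γ-33P]ATP, 120 min, room temperature, pH 6.7, 2% DMSO. Product measured by scintillation proximity; IC50 from dose-response fit.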

[3] = biological target: PI3Kγ (p110γ) Recombinant Human Protein (Homo sapiens (Human), UniProt P48736); assay: PI3K-γ Scintillation Proximity Assay; type: biochemical; settings: read-out: PI3Kγ IC50
Chain of PI3Kγ (p110γ) Recombinant Human Protein (P48736 whole entry): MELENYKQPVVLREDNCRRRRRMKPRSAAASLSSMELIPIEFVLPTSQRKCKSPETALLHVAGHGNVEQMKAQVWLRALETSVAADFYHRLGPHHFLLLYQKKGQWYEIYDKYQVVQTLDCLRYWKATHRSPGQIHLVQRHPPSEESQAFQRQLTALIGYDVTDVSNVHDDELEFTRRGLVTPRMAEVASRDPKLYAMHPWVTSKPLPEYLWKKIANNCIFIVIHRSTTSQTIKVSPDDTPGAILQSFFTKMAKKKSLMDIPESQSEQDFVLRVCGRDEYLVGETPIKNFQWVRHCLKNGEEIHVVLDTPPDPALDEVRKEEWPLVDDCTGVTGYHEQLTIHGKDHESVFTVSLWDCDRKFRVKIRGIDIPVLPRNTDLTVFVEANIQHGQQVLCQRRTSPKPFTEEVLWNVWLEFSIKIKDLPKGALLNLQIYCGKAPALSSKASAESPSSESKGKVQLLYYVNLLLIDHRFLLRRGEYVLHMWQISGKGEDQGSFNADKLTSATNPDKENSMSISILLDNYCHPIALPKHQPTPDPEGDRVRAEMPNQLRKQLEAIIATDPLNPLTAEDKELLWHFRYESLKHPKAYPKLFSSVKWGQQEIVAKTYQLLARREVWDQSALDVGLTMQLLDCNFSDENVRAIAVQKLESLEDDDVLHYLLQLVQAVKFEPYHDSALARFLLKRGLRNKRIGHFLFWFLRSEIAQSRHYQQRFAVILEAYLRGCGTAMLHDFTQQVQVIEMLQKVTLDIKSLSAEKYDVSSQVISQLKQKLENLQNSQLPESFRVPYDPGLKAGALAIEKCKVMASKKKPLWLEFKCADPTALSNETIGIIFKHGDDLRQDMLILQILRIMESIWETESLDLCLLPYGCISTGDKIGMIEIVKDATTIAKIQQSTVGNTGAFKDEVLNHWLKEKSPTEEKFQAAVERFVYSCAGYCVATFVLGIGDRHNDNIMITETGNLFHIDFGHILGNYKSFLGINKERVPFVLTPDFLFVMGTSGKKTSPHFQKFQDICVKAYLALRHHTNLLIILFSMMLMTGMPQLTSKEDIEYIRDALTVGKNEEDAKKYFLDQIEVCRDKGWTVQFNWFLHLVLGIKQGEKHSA
Summary of the method: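 Recombinant human p110γ assayed at room temperature in 20 mM MOPS pH 6.7, 10 mM MgCl2, 5 mM DTT, 0.03% CHAPS, 2% DMSO, with 20 μM PIP2 and 2 μM ATP plus [γ-33P]ATP. Product captured on WGA SPA beads overnight and counted; IC50 fitted from % of solvent-control activity versus log inhibitor concentration.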

Row | Compound | IC50 [1] | IC50 [2] | IC50 [3] | IC50 ([1]; Homo sapiens)
1 | 3-(4-Amino-2-(trifluoromethyl)imidazo[2,1- f][1,2,4]triazin-7-yl)-N-(3- (hydroxymethyl)bicyclo[2.1.1]pentan-1-yl)-4-(methyl- d3)benzenesulfonamide trifluoroacetate salt [Example 420] | 100 to 500 nM | 100 to 500 nM | < 100 nM | –
2 | 3-[8-Amino-6-(2-fluoro-6-methoxyphenyl)imidazo[1,2-a]pyrazin-3-yl]-N-(trans-4-hydroxycyclohexyl)-4-methylbenzenesulfonamide [Example 34] | 100 to 500 nM | 100 to 500 nM | < 100 nM | –
3 | 3-{8-Amino-6-[3-(methylsulfonyl)phenyl]imidazo[1,2-a]pyrazin-3-yl}-N-(trans-4-hydroxycyclohexyl)-4-methylbenzenesulfonamide [Example 33] | 500 to 1000 nM | 100 to 500 nM | < 100 nM | –
4 | 5-(4-Amino-2-(trifluoromethyl)imidazo[1,2- f][1,2,4]triazin-7-yl)-2-chloro-N-(4- (hydroxymethyl)bicyclo[1.1.1]hexan-1- yl)benzenesulfonamide [Example 419] | > 1000 nM | – | < 100 nM | –
5 | Cc1ccc(S(=O)(=O)NC23CCC(C(C)O)(CC2)OC3)cc1-c1cnc2c(N)ncnn12 (racemic) [Example 432, 3-(4-Aminoimidazo[1,2-f][1,2,4]triazin-7-yl)-N-(1-(1-hydroxyethyl)-2-oxabicyclo[2.2.2]octan-4-yl)-4-methylbenzenesulfonamide trifluoroacetate salt (racemic)] | – | 100 to 500 nM | < 100 nM | 100 to 500 nM
6 | Cc1ccc(S(=O)(=O)NC23CCC(C(O)C(F)(F)F)(CC2)OC3)cc1-c1cnc2c(N)ncnn12 (racemic) [Example 437, 3-(4-Aminoimidazo[1,2-f][1,2,4]triazin-7-yl)-4-methyl-N-(1-(2,2,2-trifluoro-1-hydroxyethyl)-2-oxabicyclo[2.2.2]octan-4-yl)benzenesulfonamide trifluoroacetate salt (racemic)] | – | 100 to 500 nM | < 100 nM | 100 to 500 nM
7 | Cc1ccc(S(=O)(=O)NC23CCC(C(O)c4ccccc4)(CC2)OC3)cc1-c1cnc2c(N)ncnn12 (racemic) [Example 438, 3-(4-Aminoimidazo[1,2-f][1,2,4]triazin-7-yl)-N-(1-(hydroxy(phenyl)methyl)-2-oxabicyclo[2.2.2]octan-4-yl)-4-methylbenzenesulfonamide trifluoroacetate salt (racemic)] | – | 100 to 500 nM | < 100 nM | < 100 nM
8 | Cc1ccc(S(=O)(=O)N2C[C@@H]3CCO[C@@H]3C2)cc1-c1cnc2c(N)ncnn12 (relative stereo) [Example 211, 7-(5-((cis-Hexahydro-5H-furo[2,3-c]pyrrol-5-yl)sulfonyl)-2-methylphenyl)imidazo[2,1-f][1,2,4]triazin-4-amine] | – | 500 to 2000 nM | < 100 nM | 500 to 1000 nM
9 | Cc1nc(N)c2ncc(-c3cc(S(=O)(=O)NCC(O)C(F)(F)F)ccc3C)n2n1 (single isomer, unassigned) [Example 266, 3-(4-Amino-2-methylimidazo[1,2-f][1,2,4]triazin-7-yl)-4-methyl-N-(3,3,3-trifluoro-2-hydroxypropyl)benzenesulfonamide (single enantiomer isolated)] | 100 to 500 nM | 100 to 500 nM | < 100 nM | –
10 | Cc1nc(N)c2ncc(-c3cc(S(=O)(=O)NCC(O)C(F)(F)F)ccc3C)n2n1 (single isomer, unassigned) [Example 267, 3-(4-Amino-2-methylimidazo[1,2-f][1,2,4]triazin-7-yl)-4-methyl-N-(3,3,3-trifluoro-2-hydroxypropyl)benzenesulfonamide (single enantiomer isolated)] | 100 to 500 nM | 100 to 500 nM | < 100 nM | –
11 | Cc1ccc(S(=O)(=O)N[C@H]2CC[C@@H](C#N)C2)cc1-c1cnc2c(N)nc(C(F)(F)F)nn12 (single isomer, unassigned) [Example 320] | 100 to 500 nM | 100 to 500 nM | < 100 nM | –
12 | Cc1ccc(S(=O)(=O)N[C@H]2CC[C@@H](C#N)C2)cc1-c1cnc2c(N)nc(C(F)(F)F)nn12 (single isomer, unassigned) [Example 321] | < 100 nM | < 100 nM | < 100 nM | –
13 | Cc1ccc(S(=O)(=O)N[C@H]2CC[C@H](O)CC2)cc1-c1cnc2c(N)cccn12 [Example 1, 3-(8-Aminoimidazo[1,2-a]pyridin-3-yl)-N-(trans-4-hydroxycyclohexyl)-4-methylbenzenesulfonamide trifluoroacetate] | – | 500 to 2000 nM | 100 to 500 nM | > 1000 nM
14 | CCS(=O)(=O)Nc1cc(-c2cnc3c(N)cccn23)cnc1F [Example 2, N-[5-(8-Aminoimidazo[1,2-a]pyridin-3-yl)-2-fluoropyridin-3-yl]ethanesulfonamide bis(trifluoroacetate)] | – | 500 to 2000 nM | 100 to 500 nM | > 1000 nM
15 | Cc1ccc(S(=O)(=O)N[C@H]2CC[C@H](O)CC2)cc1-c1cnc2c(N)cc(Cl)cn12 [Example 4, 3-(8-Amino-6-chloroimidazo[1,2-a]pyridin-3-yl)-N-(trans-4-hydroxycyclohexyl)-4-methylbenzenesulfonamide trifluoroacetate] | – | 100 to 500 nM | < 100 nM | < 100 nM
16 | CC(=O)Nc1cc(Cl)cn2c(-c3cc(S(=O)(=O)N[C@H]4CC[C@H](O)CC4)ccc3C)cnc12 [Example 5, N-[6-chloro-3-(5-{[(trans-4-hydroxycyclohexyl)amino]sulfonyl}-2-methylphenyl)imidazo[1,2-a]pyridin-8-yl]acetamide] | – | 100 to 500 nM | < 100 nM | 100 to 500 nM
17 | Cc1ccc(S(=O)(=O)N[C@H]2CC[C@H](O)CC2)cc1-c1cnc2c(N)cc(-c3cnn(C)c3)cn12 [Example 8, 3-[8-Amino-6-(1-methyl-1H-pyrazol-4-yl)imidazo[1,2-a]pyridin-3-yl]-N-(trans-4-hydroxycyclohexyl)-4-methylbenzenesulfonamide bis(trifluoroacetate)] | – | 100 to 500 nM | < 100 nM | > 1000 nM
18 | Cc1ccc(S(=O)(=O)N[C@H]2CC[C@H](O)CC2)cc1-c1cnc2c(N)cc(-c3cncnc3)cn12 [Example 9, 3-(8-Amino-6-pyrimidin-5-ylimidazo[1,2-a]pyridin-3-yl)-N-(trans-4-hydroxycyclohexyl)-4-methylbenzenesulfonamide] | – | 500 to 2000 nM | < 100 nM | > 1000 nM
19 | Cc1ccc(S(=O)(=O)N2CCCC(CNC(=O)OC(C)(C)C)C2)cc1-c1cnc2c(N)nc(C(F)(F)F)cn12 (stereo not shown) [Example 512, tert-Butyl ((1-((3-(8-amino-6-(trifluoromethyl)imidazo[1,2-a]pyrazin-3-yl)-4-methylphenyl)sulfonyl)piperidin-3-yl)methyl)carbamate] | – | > 2000 nM | < 100 nM | –
20 | Cc1ccc(S(=O)(=O)N2CCCC(CNC(=O)CN(C)C)C2)cc1-c1cnc2c(N)nc(C(F)(F)F)cn12 (stereo not shown) [Example 514, N-((1-((3-(8-Amino-6-(trifluoromethyl)imidazo[1,2-a]pyrazin-3-yl)-4-methylphenyl)sulfonyl)piperidin-3-yl)methyl)-2-(dimethylamino)acetamide] | – | 500 to 2000 nM | 100 to 500 nM | –
21 | Cc1ccc(S(=O)(=O)N2CCCC(NC(=O)OC(C)(C)C)C2)cc1-c1cnc2c(N)nc(C(F)(F)F)cn12 (stereo not shown) [Example 515, tert-Butyl (1-((3-(8-amino-6-(trifluoromethyl)imidazo[1,2-a]pyrazin-3-yl)-4-methylphenyl)sulfonyl)piperidin-3-yl)carbamate] | – | > 2000 nM | 100 to 500 nM | –
22 | Cc1ccc(S(=O)(=O)N2CCCC(NC(=O)C3CC3)C2)cc1-c1cnc2c(N)nc(C(F)(F)F)cn12 (stereo not shown) [Example 517, N-(1-((3-(8-Amino-6-(trifluoromethyl)imidazo[1,2-a]pyrazin-3-yl)-4-methylphenyl)sulfonyl)piperidin-3-yl)cyclopropanecarboxamide trifluoroacetate] | – | 500 to 2000 nM | < 100 nM | –
